# Experimental data published in patent publication US10383847B2 (priority 2012, dated 2019).
# Where two headings read alike, the source gives them in different places.
# Assays:
# ERBB3 = target: T1, ERBB3 (Homo sapiens, UniProt P21860); experiment: competition binding kinase scan; conditions: FIGS. 4 and 6
# T1 construct: DNA tag / T7 phage fusion; made in house; host or cells: T7 phage in E. coli (BL21-derived) or HEK-293
# Description: (§1) The scanning procedure is based on a competition binding assay that quantitatively measures the ability of a compound to compete with an immobilized, active-site directed ligand. The assay is performed by combining three components: DNA-tagged kinase; immobilized ligand; and a test compound. The ability of the test compound to compete with the immobilized ligand is measured via quantitative PCR of the DNA tag. This procedure is described in T. A. Carter et al., “Inhibition of Drug-Resistant Mutants of ABL, KIT, and EGF Receptor Kinases,” Proc. Natl. Acad. Sci. USA 102: 11011-11016 (2005), incorporated herein by this reference.
# (§2) Kinase assays were carried out as follows: For most assays, kinase-tagged T7 phage strains were grown in parallel in 24-well blocks in an Escherichia coli host derived from the BL21 strain. E. coli were grown to log-phase and infected with T7 phage from a frozen stock (multiplicity of infection=0.4) and incubated with shaking at 32° C. until lysis (90-150 minutes). The lysates were centrifuged (6,000×g) and filtered (0.2 μm) to remove cell debris. The remaining kinases were produced in HEK-293 cells and subsequently tagged with DNA for qPCR detection. Streptavidin-coated magnetic beads were treated with biotinylated small molecule ligands for 30 minutes at room temperature to generate affinity resins for kinase assays. The liganded beads were blocked with excess biotin and washed with blocking buffer (SeaBlock (Pierce), 1% BSA, 0.05% Tween 20, 1 mM DTT) to remove unbound ligand and to reduce nonspecific phage binding. Binding reactions were assembled by combining kinases, liganded affinity beads, and test compounds in 1× binding buffer (20% SeaBlock, 0.17×PBS, 0.05% Tween 20, 6 mM DTT). Test compounds were prepared as 40×stocks in 100% DMSO and directly diluted into the assay. All reactions were performed in polypropylene 384-well plates in a final volume of 0.04 mL. The assay plates were incubated at room temperature with shaking for 1 hour and the affinity beads were washed with wash buffer (1×PBS, 0.05% Tween 20). The beads were then re-suspended in elution buffer (1×PBS, 0.05% Tween 20, 0.5 μM non-biotinylated affinity ligand) and incubated at room temperature with shaking for 30 minutes. The kinase concentration in the eluates was measured by qPCR.
# (§3) The compounds were screened at the requested concentrations, and results for primary screen binding interactions were reported as “% Ctrl,” where lower numbers indicate stronger hits (i.e., an increased degree of inhibition of kinase activity) as follows (Equation (1)): […]
# NEK9 = target: T2, NEK9 (Homo sapiens, UniProt Q8TD19); experiment: competition binding kinase scan
# T2 construct: DNA tag / T7 phage fusion; made in house; host or cells: T7 phage in E. coli (BL21-derived) or HEK-293
# T2 sequence (Q8TD19 whole entry, the tested form may be a part): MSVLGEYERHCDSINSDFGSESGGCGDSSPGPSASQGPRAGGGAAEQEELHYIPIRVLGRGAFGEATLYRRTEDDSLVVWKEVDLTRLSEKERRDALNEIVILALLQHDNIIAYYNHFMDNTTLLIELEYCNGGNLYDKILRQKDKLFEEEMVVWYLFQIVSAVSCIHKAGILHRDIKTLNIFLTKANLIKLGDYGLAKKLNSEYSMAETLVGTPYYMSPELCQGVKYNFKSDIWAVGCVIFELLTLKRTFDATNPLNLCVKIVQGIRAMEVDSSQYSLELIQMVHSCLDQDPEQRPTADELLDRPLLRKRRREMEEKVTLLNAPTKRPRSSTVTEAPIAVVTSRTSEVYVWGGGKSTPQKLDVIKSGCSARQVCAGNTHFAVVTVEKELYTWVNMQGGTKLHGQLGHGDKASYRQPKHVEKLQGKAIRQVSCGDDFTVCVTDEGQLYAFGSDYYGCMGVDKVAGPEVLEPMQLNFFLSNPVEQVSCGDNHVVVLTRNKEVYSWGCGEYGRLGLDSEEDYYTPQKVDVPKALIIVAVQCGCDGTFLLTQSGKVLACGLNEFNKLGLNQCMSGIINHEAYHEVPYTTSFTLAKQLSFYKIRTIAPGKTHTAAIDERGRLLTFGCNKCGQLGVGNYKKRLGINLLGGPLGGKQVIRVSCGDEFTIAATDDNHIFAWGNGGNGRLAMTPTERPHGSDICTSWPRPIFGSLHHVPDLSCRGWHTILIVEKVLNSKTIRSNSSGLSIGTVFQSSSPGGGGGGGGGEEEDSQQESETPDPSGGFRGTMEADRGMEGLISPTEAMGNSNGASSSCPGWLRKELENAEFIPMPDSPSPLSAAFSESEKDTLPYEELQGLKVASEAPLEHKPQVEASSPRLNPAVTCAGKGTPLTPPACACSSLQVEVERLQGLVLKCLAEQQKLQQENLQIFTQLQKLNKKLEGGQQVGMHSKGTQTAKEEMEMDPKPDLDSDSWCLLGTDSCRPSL
# Description: as §1, §2, §3
# STK25 = target: T3, STK25 (Homo sapiens, UniProt O00506); experiment: competition binding kinase scan; conditions: FIGS. 4 and 6
# T3 construct: DNA tag / T7 phage fusion; made in house; host or cells: T7 phage in E. coli (BL21-derived) or HEK-293
# T3 sequence (O00506 whole entry, the tested form may be a part): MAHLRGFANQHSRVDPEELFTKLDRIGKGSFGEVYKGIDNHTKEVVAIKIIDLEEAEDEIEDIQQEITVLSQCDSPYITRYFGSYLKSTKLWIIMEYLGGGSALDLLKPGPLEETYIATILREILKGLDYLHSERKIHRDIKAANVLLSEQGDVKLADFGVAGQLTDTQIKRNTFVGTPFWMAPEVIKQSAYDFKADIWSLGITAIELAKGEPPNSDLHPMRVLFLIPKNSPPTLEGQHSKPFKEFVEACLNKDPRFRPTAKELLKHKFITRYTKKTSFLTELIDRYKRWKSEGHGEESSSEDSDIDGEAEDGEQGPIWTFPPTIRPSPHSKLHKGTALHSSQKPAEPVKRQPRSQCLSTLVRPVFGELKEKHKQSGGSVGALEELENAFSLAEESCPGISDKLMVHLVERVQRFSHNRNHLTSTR
# Description: as §1, §2, §3
# [1] = system: malignant cell lines, particularly AML cell lines (MV 4-11, myeloid cell lines); experiment: viability of cancer cell lines after meisoindigo treatment; format: cell-based; conditions: 0.1-100 μM, 24 and 48 hours
# Description: Viability at 48 hours is shown by (♦); viability at 24 hours is shown by (▪).
# NB4 = conditions: AML; cited from earlier work
# HL-60 = conditions: AML; cited from earlier work
# U937 = conditions: AML; cited from earlier work
# K562 = conditions: CML; cited from earlier work
# HT29 = conditions: colorectal cancer; cited from earlier work
# HUVEC [2] = conditions: cited from earlier work
# ECV304 [3] = conditions: cited from earlier work
# primary AML = conditions: cited from earlier work
# cytochrome P450 1A2 [4] = target: T4, cytochrome P450 1A2 (Homo sapiens, UniProt P05177); conditions: by oxidation; cited from earlier work
# T4 sequence (P05177 whole entry, species assumed): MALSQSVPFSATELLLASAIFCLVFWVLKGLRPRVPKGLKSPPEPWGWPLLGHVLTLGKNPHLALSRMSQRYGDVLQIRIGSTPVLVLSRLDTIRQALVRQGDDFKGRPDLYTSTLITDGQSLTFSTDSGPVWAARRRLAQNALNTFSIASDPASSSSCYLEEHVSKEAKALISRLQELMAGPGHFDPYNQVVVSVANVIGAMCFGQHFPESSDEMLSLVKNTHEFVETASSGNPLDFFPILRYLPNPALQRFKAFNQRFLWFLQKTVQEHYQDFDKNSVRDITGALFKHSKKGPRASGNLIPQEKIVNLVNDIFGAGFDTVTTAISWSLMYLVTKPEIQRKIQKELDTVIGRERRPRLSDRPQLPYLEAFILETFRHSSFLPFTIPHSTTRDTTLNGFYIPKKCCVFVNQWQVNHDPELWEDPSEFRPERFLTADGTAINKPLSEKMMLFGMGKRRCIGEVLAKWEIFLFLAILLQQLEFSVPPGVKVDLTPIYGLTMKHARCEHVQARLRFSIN
# cytochrome P450 2C19 = cytochrome P450 2C19 (Homo sapiens, UniProt P33261); conditions: by oxidation; cited from earlier work
# Chain of cytochrome P450 2C19 (P33261 whole entry): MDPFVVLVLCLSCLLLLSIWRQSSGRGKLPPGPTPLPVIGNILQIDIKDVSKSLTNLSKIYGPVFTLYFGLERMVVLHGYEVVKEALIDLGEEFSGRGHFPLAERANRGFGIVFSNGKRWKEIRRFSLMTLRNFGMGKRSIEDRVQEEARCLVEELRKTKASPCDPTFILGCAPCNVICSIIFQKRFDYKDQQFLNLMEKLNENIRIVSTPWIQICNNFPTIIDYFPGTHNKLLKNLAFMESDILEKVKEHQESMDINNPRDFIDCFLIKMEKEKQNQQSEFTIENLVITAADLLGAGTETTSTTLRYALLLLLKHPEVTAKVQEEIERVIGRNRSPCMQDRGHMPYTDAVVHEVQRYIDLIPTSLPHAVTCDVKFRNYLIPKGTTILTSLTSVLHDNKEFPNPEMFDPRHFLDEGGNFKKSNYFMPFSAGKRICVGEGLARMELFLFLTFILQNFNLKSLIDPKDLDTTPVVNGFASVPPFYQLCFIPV
# [5] = system: uridine glucuronyltransferases (UGT); conditions: direct conjugation without initial cytochrome P450 oxidation, more polar metabolites; cited from earlier work
# cytochrome P450 1A2 [6] = target: T4, cytochrome P450 1A2; conditions: cited from earlier work
# cytochrome P450 2C8 = cytochrome P450 2C8 (Homo sapiens, UniProt P10632); conditions: cited from earlier work
# Chain of cytochrome P450 2C8 (P10632 whole entry): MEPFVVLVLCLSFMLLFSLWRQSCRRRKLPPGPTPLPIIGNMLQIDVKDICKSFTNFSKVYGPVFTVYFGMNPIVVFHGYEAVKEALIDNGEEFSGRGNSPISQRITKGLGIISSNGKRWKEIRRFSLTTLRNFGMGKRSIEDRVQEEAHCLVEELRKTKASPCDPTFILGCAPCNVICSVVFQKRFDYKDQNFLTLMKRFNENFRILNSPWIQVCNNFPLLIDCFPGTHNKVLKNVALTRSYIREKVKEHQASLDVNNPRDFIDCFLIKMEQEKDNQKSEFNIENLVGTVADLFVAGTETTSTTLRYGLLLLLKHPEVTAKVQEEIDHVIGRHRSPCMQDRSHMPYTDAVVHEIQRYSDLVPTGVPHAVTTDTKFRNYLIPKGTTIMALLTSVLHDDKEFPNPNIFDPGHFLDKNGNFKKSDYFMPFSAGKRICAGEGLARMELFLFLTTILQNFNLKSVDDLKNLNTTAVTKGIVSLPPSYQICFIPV
# AML NOD/SCID model = conditions: in vivo; cited from earlier work
# [7] = system: HT-29 colorectal xenografts; conditions: in vivo; cited from earlier work
# Lewis lung sarcoma = conditions: in vivo; cited from earlier work
# [8] = system: Walker 256 carcino-sarcoma; conditions: in vivo; cited from earlier work
# murine cancer models = conditions: mouse, in vivo; cited from earlier work
# AML cell lines = conditions: cited from earlier work
# [9] = system: HT-29 colorectal cell lines; conditions: cited from earlier work
# primary AML cells = conditions: cited from earlier work
# AML cells = conditions: DKO insensitive to chemotherapy; cited from earlier work
# K562 cells = conditions: cited from earlier work
# HL-60 myeloid cells = conditions: cited from earlier work
# [10] = system: human myeloblastic leukemic cells; conditions: cited from earlier work
# W256 cells = conditions: cited from earlier work
# [11] = target: glycogen synthase kinase-3β (GSK-3β) (Homo sapiens, UniProt P49841); conditions: cited from earlier work
# Chain of glycogen synthase kinase-3β (GSK-3β) (P49841 whole entry, species assumed): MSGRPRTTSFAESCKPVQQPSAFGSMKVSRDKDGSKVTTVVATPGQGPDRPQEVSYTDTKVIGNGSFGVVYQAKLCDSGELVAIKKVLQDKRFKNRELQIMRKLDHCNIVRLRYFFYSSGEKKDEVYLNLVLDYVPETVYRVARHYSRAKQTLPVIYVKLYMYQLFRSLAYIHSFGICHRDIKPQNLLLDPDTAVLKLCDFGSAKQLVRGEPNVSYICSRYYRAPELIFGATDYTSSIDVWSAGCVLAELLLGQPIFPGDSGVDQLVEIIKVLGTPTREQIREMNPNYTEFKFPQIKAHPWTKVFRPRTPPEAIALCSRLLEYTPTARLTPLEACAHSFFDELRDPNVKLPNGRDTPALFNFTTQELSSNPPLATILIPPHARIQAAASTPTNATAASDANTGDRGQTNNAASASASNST
# HL-60 cells = conditions: cited from earlier work
# Jurkat cells = conditions: inducing phosphorylation of c-Myb; cited from earlier work
# HUVEC [12] = conditions: cited from earlier work; remark: listed apart in the source
# ECV304 [13] = conditions: cited from earlier work; remark: listed apart in the source
# VEGF = conditions: cited from earlier work
# VCAM-1 = conditions: cited from earlier work
# [14] = system: hepatic cytochrome P450 (CYP); conditions: hepatic CYP-mediated; cited from earlier work
# rats = conditions: up to 400 mg/kg/d p.o. for 30 days; cited from earlier work
# dogs = conditions: 10 mg/kg/d p.o. for 6 months; cited from earlier work
# [15] = Ames; cited from earlier work
# [16] = Chromabs; cited from earlier work
# patients = conditions: cited from earlier work
# [17] = system: chronic myelogenous leukemia (CML) patients; conditions: cited from earlier work
# T1 sequence (P21860 20-1342): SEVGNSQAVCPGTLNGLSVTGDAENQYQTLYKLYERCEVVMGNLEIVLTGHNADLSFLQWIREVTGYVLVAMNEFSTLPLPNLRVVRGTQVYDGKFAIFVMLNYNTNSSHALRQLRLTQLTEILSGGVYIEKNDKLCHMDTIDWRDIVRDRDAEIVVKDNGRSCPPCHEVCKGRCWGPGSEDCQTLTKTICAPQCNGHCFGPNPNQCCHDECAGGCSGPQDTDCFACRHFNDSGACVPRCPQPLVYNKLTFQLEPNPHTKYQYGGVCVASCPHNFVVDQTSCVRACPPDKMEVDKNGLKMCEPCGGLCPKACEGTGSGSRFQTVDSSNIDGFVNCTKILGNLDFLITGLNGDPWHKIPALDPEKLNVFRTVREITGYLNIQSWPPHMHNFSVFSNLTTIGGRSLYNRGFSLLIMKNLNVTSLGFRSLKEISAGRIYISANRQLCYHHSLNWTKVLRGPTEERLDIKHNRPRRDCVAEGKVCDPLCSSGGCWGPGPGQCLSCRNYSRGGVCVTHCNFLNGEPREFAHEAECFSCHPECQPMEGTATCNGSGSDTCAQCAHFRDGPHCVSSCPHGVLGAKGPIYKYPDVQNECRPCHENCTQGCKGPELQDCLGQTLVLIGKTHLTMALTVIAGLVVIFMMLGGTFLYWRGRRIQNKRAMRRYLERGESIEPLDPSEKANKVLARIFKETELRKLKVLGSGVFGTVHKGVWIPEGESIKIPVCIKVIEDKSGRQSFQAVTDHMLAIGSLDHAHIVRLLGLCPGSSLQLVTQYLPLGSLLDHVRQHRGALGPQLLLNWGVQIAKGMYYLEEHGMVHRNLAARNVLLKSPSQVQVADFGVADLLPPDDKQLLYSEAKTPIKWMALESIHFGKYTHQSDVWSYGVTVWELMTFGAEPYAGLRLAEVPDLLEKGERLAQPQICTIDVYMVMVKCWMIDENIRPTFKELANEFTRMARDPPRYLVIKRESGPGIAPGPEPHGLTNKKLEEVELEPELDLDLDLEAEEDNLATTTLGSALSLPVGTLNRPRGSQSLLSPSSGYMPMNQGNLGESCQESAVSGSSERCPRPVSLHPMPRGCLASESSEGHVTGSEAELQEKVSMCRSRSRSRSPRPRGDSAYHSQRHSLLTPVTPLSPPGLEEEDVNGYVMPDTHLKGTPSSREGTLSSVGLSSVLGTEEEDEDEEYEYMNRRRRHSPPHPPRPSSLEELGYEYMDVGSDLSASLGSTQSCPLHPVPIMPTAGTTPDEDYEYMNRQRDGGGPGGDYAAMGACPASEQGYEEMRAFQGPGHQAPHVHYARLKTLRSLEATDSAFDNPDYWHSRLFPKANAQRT
smiles,measurement,setting,value
"CN1C(=O)/C(=C2/C(=O)Nc3ccccc32)c2ccccc21 [Meisoindigo, 3-(1,2-dihydro-2-oxo-3H-indol-3-ylidene)-1,3-dihydro-1-methyl-2H-indol-2-one]",binding to kinase,ERBB3,significant binding
same,kinase inhibition in screen,NEK9; FIG. 6,significant inhibition
same,binding to kinase,NEK9; FIGS. 4 and 6,strongest binding
same,binding to kinase,STK25,significant binding
same,killing of malignant cell lines (viability),[1],effective in killing
same,activity against cells,NB4,activity
same,activity against cells,HL-60,activity
same,activity against cells,U937,activity
same,activity against cells,K562,activity
same,activity against cells,HT29,activity
same,activity against cells,HUVEC [2],activity
same,activity against cells,ECV304 [3],activity
same,activity against cells,primary AML,activity
same,metabolism by enzyme,cytochrome P450 1A2 [4],metabolized
same,metabolism by enzyme,cytochrome P450 2C19,metabolized
same,metabolism by enzyme,[5],metabolized
same,"inhibition of enzyme, concentration",cytochrome P450 1A2 [6],low micromolar concentrations
same,"inhibition of enzyme, concentration",cytochrome P450 2C8,low micromolar concentrations
same,spleen size,AML NOD/SCID model,dose-dependent spleen size reduction
same,efficacy in model,[7],effective
same,efficacy in model,Lewis lung sarcoma,effective
same,efficacy in model,[8],effective
same,efficacy in model,murine cancer models,effective
same,cell cycle specific effect,AML cell lines,arrest in G(O)/G1
same,cell cycle specific effect,[9],G2/M arrest
same,Bcl-2,primary AML cells,downregulation
same,p21,primary AML cells,upregulation
same,p27,primary AML cells,upregulation
same,Bak,AML cells,upregulation
same,Bax,AML cells,upregulation
same,mechanism of apoptosis,K562 cells,novel caspase-dependent pathway
same,"cleavage of pro-caspase 3, 8, 9 and PARP",HL-60 myeloid cells,stimulates the cleavage
same,c-myb gene expression,[10],downregulation
same,differentiation,[10],promotes differentiation
same,DNA and RNA synthesis,W256 cells,inhibition
same,concentration at which GSK-3β is inhibited,[11],5 to 50 nM
same,c-myc,HL-60 cells,decreases
same,β-catenin,HL-60 cells,decreases
same,Ahi-1,Jurkat cells,upregulation
same,tubule formulation,HUVEC [12],decreased
same,apoptosis,ECV304 [13],apoptosis
same,VEGF protection,VEGF,decreased
same,VCAM-1,VCAM-1,decreased
same,metabolic routes,[14],N-demethylation and mono ring hydroxylation
same,tolerability,rats,well tolerated
same,tolerability,dogs,well tolerated
same,genotoxicity,[15],not genotoxic
same,genotoxicity,[16],not genotoxic
same,"cardiac, hepatic, or renal adverse effects",patients; patients,"no cardiac, hepatic, or renal adverse effects"
same,mild nausea and vomiting,"patients; patients, spontaneously disappeared in two weeks",30%
same,tolerability,"patients; several patient populations, single agent or in combination with chemotherapy",well tolerated
same,"complete hematologic response, patients",[17]; 50-200 mg/d p.o.,33%
same,"partial hematologic response, patients",[17]; 50-200 mg/d p.o.,58%
same,"reduction of leukocyte count, median",[17]; 50-200 mg/d p.o.,31 days
same,"reduction of splenomegaly, median",[17]; 50-200 mg/d p.o.,25 days
same,effect of combination with hydroxyurea,[17]; with hydroxyurea,synergistic effect
